{
  "source": "patent US20050170394A1",
  "about": "(priority 2004, published 2005)",
  "data": [
    {"target": "T1, GLUT1 (Homo sapiens, UniProt P11166)", "T1 sequence (P11166 1-492)": "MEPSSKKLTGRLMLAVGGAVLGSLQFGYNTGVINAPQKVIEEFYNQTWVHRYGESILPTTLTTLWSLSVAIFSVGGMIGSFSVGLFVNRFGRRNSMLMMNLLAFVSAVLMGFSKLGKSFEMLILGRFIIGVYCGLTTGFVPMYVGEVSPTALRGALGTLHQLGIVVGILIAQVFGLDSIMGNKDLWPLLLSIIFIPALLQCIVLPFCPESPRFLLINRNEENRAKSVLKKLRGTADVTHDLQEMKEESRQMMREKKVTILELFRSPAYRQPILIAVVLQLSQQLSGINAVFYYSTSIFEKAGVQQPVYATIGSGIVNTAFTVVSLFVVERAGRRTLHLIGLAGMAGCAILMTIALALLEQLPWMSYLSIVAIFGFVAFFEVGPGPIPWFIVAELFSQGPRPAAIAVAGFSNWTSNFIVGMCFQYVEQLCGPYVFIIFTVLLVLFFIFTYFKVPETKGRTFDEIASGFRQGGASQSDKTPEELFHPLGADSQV", "assay": "Uptake of 3H-glucose by GLUT1 expressed in Xenopus oocytes", "format": "cell-based", "parameters": "expressed in transfected cells; host or cells: Xenopus oocytes (defolliculated), injected with in vitro transcribed GLUT1 cRNA", "conditions": "Xenopus oocytes injected with GLUT1 cRNA", "description": "To assess transport function of a specific transporter protein, it can be desirable to clone the cDNA and express the protein in cells that have low endogenous transport activity. Human GLUT1 was cloned by PCR, fully sequenced, and subcloned into plasmids that can be used for expression in mammalian cells or Xenopus oocytes. […] For expression in Xenopus oocytes, in vitro GLUT1 cRNA was prepared and injected into defoliculated oocytes. […]", "values": [
      {"compound": "O=C[C@H](O)[C@@H](O)[C@H](O)[C@H](O)CO", "note": "[^3H-glucose]", "3H-glucose uptake versus noninjected controls": "higher levels"}
    ]},
    {"target": "T1, GLUT1", "assay": "not given", "conditions": "substrates and inhibitors of GLUT1; cited from earlier work", "units": {"Reported Affinity for GLUT1": "mM"}, "values": [
      {"compound": "O=C(CCc1ccc(O)cc1)c1c(O)cc(O)cc1O", "note": "[Phloretin]", "Reported Affinity for GLUT1": 0.05},
      {"compound": "O=C1O[C@H]([C@@H](O)CO)C(=O)C1=O", "note": "[Dehydroascorbic Acid]", "Reported Affinity for GLUT1": 0.8},
      {"compound": "Fluorodeoxyglucose", "Reported Affinity for GLUT1": 4},
      {"compound": "O=C[C@H](O)[C@@H](O)[C@@H](O)[C@H](O)CO", "note": "[Galactose]", "Reported Affinity for GLUT1": 4},
      {"compound": "N[C@H]1C(O)O[C@H](CO)[C@@H](O)[C@@H]1O", "note": "(stereo partly shown) [Glucosamine]", "Reported Affinity for GLUT1": 9},
      {"compound": "(S)-methoxy-a-methyl-2-napthalene acetic acid amido galacto pyranose", "Reported Affinity for GLUT1": 1}
    ]}
  ]
}
